The assay deals with T1, human PAH with the R408W mutation (Homo sapiens, UniProt P00439, R408W).
T1 construct: expressed in transfected cells
T1 sequence (P00439 1-452 R408W): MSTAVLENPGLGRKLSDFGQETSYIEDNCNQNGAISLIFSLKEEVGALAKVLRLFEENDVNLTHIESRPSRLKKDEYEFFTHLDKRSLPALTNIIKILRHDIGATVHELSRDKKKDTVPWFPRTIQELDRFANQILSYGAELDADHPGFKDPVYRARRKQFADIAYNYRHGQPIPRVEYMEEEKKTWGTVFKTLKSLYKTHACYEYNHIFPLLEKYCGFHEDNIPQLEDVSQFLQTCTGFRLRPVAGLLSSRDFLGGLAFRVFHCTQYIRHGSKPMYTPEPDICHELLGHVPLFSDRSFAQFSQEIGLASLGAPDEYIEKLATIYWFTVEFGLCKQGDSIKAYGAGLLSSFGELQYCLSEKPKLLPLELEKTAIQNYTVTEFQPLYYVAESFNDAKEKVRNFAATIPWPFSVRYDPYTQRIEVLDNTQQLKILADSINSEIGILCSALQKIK
Briefly: Cell Based Phenylalanine Flux Assay.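 Also: after compound treatment, cells received sepiapterin plus isotope-labelled Phenylalanine for 4 hours, then labelled Tyrosine in the medium was quantified, 10-point 2-fold dilution series run in duplicate.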 The settings on record: A375 cells expressing human PAH R408W; 24 hrs compound incubation; 13C-Tyrosine by LC-MS; average where tested multiple times; read-out: AC50.

By AC50 is commonly meant the concentration giving half of the maximal activity seen.

Procedure: Compounds were resuspended in DMSO, and 2-fold serial dilutions were performed to generate a 10-point dose curve. Compounds were added to plated cells in a total volume of 100 µl, and a final DMSO concentration of 0.5%. Each compound was tested in duplicate. Following compound addition, cells were placed in a 5% CO2, 37° C. tissue culture incubator for 24 hrs. After the incubation period, 20 µM sepiapterin and 800 µM 13C9,15N-Phenylalanine were added. After 4 hours, cell media was removed. An aliquot of 10 µl of cell media was combined with 200 µl of extraction buffer (80% acetonitrile/20% H2O) for each well. Determination of ^13C-Tyrosine concentration was assessed by liquid chromatography mass spectrometry.
Where a compound was tested multiple times, the average value of the tests is reported.

Take `FC(F)Oc1cccn2nc([C@H]3c4nc[nH]c4CCN3c3ccc(C(F)(F)F)cn3)cc12` [Example 2273, (R)-4-(4-(difluoromethoxy)pyrazolo[1,5-a]pyridin-2-yl)-5-(5-(trifluoromethyl)pyridin-2-yl)-4,5,6,7-tetrahydro-1H-imidazo[4,5-c]pyridine]: the AC50 was above 5000 nM.
As for `Cc1cccc2cc([C@@H]3c4nc[nH]c4CCN3c3nnc(-c4cccnc4F)o3)nn12` [Example 2274, (S)-2-(2-fluoropyridin-3-yl)-5-(4-(7-methylpyrazolo[1,5-a]pyridin-2-yl)-1,4,6,7-tetrahydro-5H-imidazo[4,5-c]pyridin-5-yl)-1,3,4-oxadiazole], the AC50 is 500 to 1000 nM.
As for `Cc1cccc2cc([C@H]3c4nc[nH]c4CCN3c3nnc(-c4cccnc4F)o3)nn12` [Example 2275, (R)-2-(2-fluoropyridin-3-yl)-5-(4-(7-methylpyrazolo[1,5-a]pyridin-2-yl)-1,4,6,7-tetrahydro-5H-imidazo[4,5-c]pyridin-5-yl)-1,3,4-oxadiazole], the AC50 was above 5000 nM.
Turning to `Cc1cccnc1-c1nnc(N2CCc3[nH]cnc3[C@H]2c2cc3c(C(F)(F)F)cccn3n2)o1` [Example 2276, (S)-2-(3-methylpyridin-2-yl)-5-(4-(4-(trifluoromethyl)pyrazolo[1,5-a]pyridin-2-yl)-1,4,6,7-tetrahydro-5H-imidazo[4,5-c]pyridin-5-yl)-1,3,4-oxadiazole], the AC50 is below 500 nM.
`Cc1cccnc1-c1nnc(N2CCc3[nH]cnc3[C@@H]2c2cc3c(C(F)(F)F)cccn3n2)o1` [Example 2277, (R)-2-(3-methylpyridin-2-yl)-5-(4-(4-(trifluoromethyl)pyrazolo[1,5-a]pyridin-2-yl)-1,4,6,7-tetrahydro-5H-imidazo[4,5-c]pyridin-5-yl)-1,3,4-oxadiazole]: the AC50 was above 5000 nM.
Take `Cc1cccnc1-c1nnc(N2CCc3[nH]cnc3[C@@H]2c2cc3c(C(F)F)cccn3n2)o1` [Example 2278, (R)-2-(4-(4-(difluoromethyl)pyrazolo[1,5-a]pyridin-2-yl)-1,4,6,7-tetrahydro-5H-imidazo[4,5-c]pyridin-5-yl)-5-(3-methylpyridin-2-yl)-1,3,4-oxadiazole]: the AC50 was above 5000 nM.
On to `Cc1cccnc1-c1nnc(N2CCc3[nH]cnc3[C@H]2c2cc3c(F)cccn3n2)o1` [Example 2280, (S)-2-(4-(4-fluoropyrazolo[1,5-a]pyridin-2-yl)-1,4,6,7-tetrahydro-5H-imidazo[4,5-c]pyridin-5-yl)-5-(3-methylpyridin-2-yl)-1,3,4-oxadiazole], for which the AC50 is below 500 nM.
As for `Cc1cccnc1-c1nnc(N2CCc3[nH]cnc3[C@@H]2c2cc3c(C4CC4)cccn3n2)o1` [Example 2282, (R)-2-(4-(4-cyclopropylpyrazolo[1,5-a]pyridin-2-yl)-1,4,6,7-tetrahydro-5H-imidazo[4,5-c]pyridin-5-yl)-5-(3-methylpyridin-2-yl)-1,3,4-oxadiazole], the AC50 is above 5000 nM.
For the molecule `Cc1cccnc1-c1nnc(N2CCc3[nH]cnc3[C@H]2c2cc3c(C4CC4)cccn3n2)o1` [Example 2283, (S)-2-(4-(4-cyclopropylpyrazolo[1,5-a]pyridin-2-yl)-1,4,6,7-tetrahydro-5H-imidazo[4,5-c]pyridin-5-yl)-5-(3-methylpyridin-2-yl)-1,3,4-oxadiazole], the AC50 was below 500 nM.
Turning to `Cc1cccnc1-c1nnc(N2CCc3[nH]cnc3[C@@H]2c2cc3c(C(C)C)cccn3n2)o1` [Example 2284, (R)-2-(4-(4-isopropylpyrazolo[1,5-a]pyridin-2-yl)-1,4,6,7-tetrahydro-5H-imidazo[4,5-c]pyridin-5-yl)-5-(3-methylpyridin-2-yl)-1,3,4-oxadiazole], the AC50 is above 5000 nM.
Regarding `Cc1cccnc1-c1nnc(N2CCc3[nH]cnc3[C@H]2c2cc3c(C(C)C)cccn3n2)o1` [Example 2285, (S)-2-(4-(4-isopropylpyrazolo[1,5-a]pyridin-2-yl)-1,4,6,7-tetrahydro-5H-imidazo[4,5-c]pyridin-5-yl)-5-(3-methylpyridin-2-yl)-1,3,4-oxadiazole], the AC50 is below 500 nM.
With `Cc1cccnc1-c1nnc(N2CCc3[nH]cnc3[C@@H]2c2cc3c(Cl)cccn3n2)o1` [Example 2286, (R)-2-(4-(4-chloropyrazolo[1,5-a]pyridin-2-yl)-1,4,6,7-tetrahydro-5H-imidazo[4,5-c]pyridin-5-yl)-5-(3-methylpyridin-2-yl)-1,3,4-oxadiazole], the AC50 was above 5000 nM.
Consider `Fc1cccnc1-c1nnc(N2CCc3[nH]cnc3[C@H]2c2cc3c(F)cccn3n2)o1` [Example 2289, (S)-2-(4-(4-fluoropyrazolo[1,5-a]pyridin-2-yl)-1,4,6,7-tetrahydro-5H-imidazo[4,5-c]pyridin-5-yl)-5-(3-fluoropyridin-2-yl)-1,3,4-oxadiazole], for which the AC50 is below 500 nM.
As for `Cc1cc(-c2nnc(C(=O)N3CCc4[nH]cnc4[C@H]3c3cc4c(C)cccn4n3)o2)n[nH]1` [Example 2291, (S)-(5-(5-methyl-1H-pyrazol-3-yl)-1,3,4-oxadiazol-2-yl)(4-(4-methylpyrazolo[1,5-a]pyridin-2-yl)-1,4,6,7-tetrahydro-5H-imidazo[4,5-c]pyridin-5-yl)methanone], the AC50 fell in the range of 1000 to 5000 nM.
On to `Cc1c[nH]nc1-c1nnc(C(=O)N2CCc3[nH]cnc3[C@H]2c2cc3c(C)cccn3n2)o1` [Example 2292, (S)-(5-(4-methyl-1H-pyrazol-3-yl)-1,3,4-oxadiazol-2-yl)(4-(4-methylpyrazolo[1,5-a]pyridin-2-yl)-1,4,6,7-tetrahydro-5H-imidazo[4,5-c]pyridin-5-yl)methanone], for which the AC50 was below 500 nM.
Consider `Cc1c[nH]nc1-c1nnc(C(=O)N2CCc3[nH]cnc3[C@@H]2c2cc3c(C)cccn3n2)o1` [Example 2293, (R)-(5-(4-methyl-1H-pyrazol-3-yl)-1,3,4-oxadiazol-2-yl)(4-(4-methylpyrazolo[1,5-a]pyridin-2-yl)-1,4,6,7-tetrahydro-5H-imidazo[4,5-c]pyridin-5-yl)methanone], for which the AC50 is above 5000 nM.
For `Cc1cc(-c2nnc(C(=O)N3CCc4[nH]cnc4[C@@H]3c3cc4c(F)cccn4n3)o2)n[nH]1` [Example 2294, (R)-(4-(4-fluoropyrazolo[1,5-a]pyridin-2-yl)-1,4,6,7-tetrahydro-5H-imidazo[4,5-c]pyridin-5-yl)(5-(5-methyl-1H-pyrazol-3-yl)-1,3,4-oxadiazol-2-yl)methanone], the AC50 was above 5000 nM.
Turning to `COc1cccn2nc([C@H]3c4nc[nH]c4CCN3c3ncccn3)cc12` [Example 2298, (R)-4-(4-methoxypyrazolo[1,5-a]pyridin-2-yl)-5-(pyrimidin-2-yl)-4,5,6,7-tetrahydro-1H-imidazo[4,5-c]pyridine], the AC50 was 1000 to 5000 nM.
On to `COc1cccn2nc([C@@H]3c4nc[nH]c4CCN3c3ncccn3)cc12` [Example 2299, (S)-4-(4-methoxypyrazolo[1,5-a]pyridin-2-yl)-5-(pyrimidin-2-yl)-4,5,6,7-tetrahydro-1H-imidazo[4,5-c]pyridine], for which the concentration at half-maximal activity (AC50) was below 500 nM.
Under `CC(C)c1nnc(N2CCc3[nH]cnc3[C@H]2c2cc3ccccn3n2)o1` [Example 2301, (S)-2-isopropyl-5-(4-(pyrazolo[1,5-a]pyridin-2-yl)-1,4,6,7-tetrahydro-5H-imidazo[4,5-c]pyridin-5-yl)-1,3,4-oxadiazole] stands 500 to 1000 nM; under `Cc1cccn2nc([C@@H]3c4nc[nH]c4CCN3c3nnc(C(C)C)o3)cc12` [Example 2303, (S)-2-isopropyl-5-(4-(4-methylpyrazolo[1,5-a]pyridin-2-yl)-1,4,6,7-tetrahydro-5H-imidazo[4,5-c]pyridin-5-yl)-1,3,4-oxadiazole], below 500 nM; under `CC(C)c1nnc(N2CCc3[nH]cnc3[C@H]2c2cc3c(C(F)(F)F)cccn3n2)o1` [Example 2305, (S)-2-isopropyl-5-(4-(4-(trifluoromethyl)pyrazolo[1,5-a]pyridin-2-yl)-1,4,6,7-tetrahydro-5H-imidazo[4,5-c]pyridin-5-yl)-1,3,4-oxadiazole], 500 to 1000 nM.
Regarding `Cc1cccnc1-c1nnc(N2CCc3[nH]cnc3[C@@H]2c2cc3cccc(C)n3n2)o1` [Example 2308, (R)-2-(4-(7-methylpyrazolo[1,5-a]pyridin-2-yl)-1,4,6,7-tetrahydro-5H-imidazo[4,5-c]pyridin-5-yl)-5-(3-methylpyridin-2-yl)-1,3,4-oxadiazole], the AC50 is above 5000 nM.
Under `Cc1cccnc1-c1nnc(N2CCc3[nH]cnc3[C@H]2c2cc3cccc(C)n3n2)o1` [Example 2309, (S)-2-(4-(7-methylpyrazolo[1,5-a]pyridin-2-yl)-1,4,6,7-tetrahydro-5H-imidazo[4,5-c]pyridin-5-yl)-5-(3-methylpyridin-2-yl)-1,3,4-oxadiazole] stands 500 to 1000 nM.
In the case of `Cc1cccn2nc([C@@H]3c4nc[nH]c4CCN3c3ccccc3)cc12` [Example 2311, (S)-4-(4-methylpyrazolo[1,5-a]pyridin-2-yl)-5-phenyl-4,5,6,7-tetrahydro-1H-imidazo[4,5-c]pyridine], the AC50 is below 500 nM.
Take `Fc1cccn2nc([C@H]3c4nc[nH]c4CCN3c3ccccc3)cc12` [Example 2312, (R)-4-(4-fluoropyrazolo[1,5-a]pyridin-2-yl)-5-phenyl-4,5,6,7-tetrahydro-1H-imidazo[4,5-c]pyridine]: the half-maximal activity concentration (AC50) is 1000 to 5000 nM.
Consider `Fc1cccn2nc([C@@H]3c4nc[nH]c4CCN3c3ccccc3)cc12` [Example 2313, (S)-4-(4-fluoropyrazolo[1,5-a]pyridin-2-yl)-5-phenyl-4,5,6,7-tetrahydro-1H-imidazo[4,5-c]pyridine], for which the AC50 is below 500 nM.

(Values after patent publication US20230365592A1 (Agios Pharmaceuticals, Inc., priority 2022, published 2023).)
